Results on one compound are retold here after patent US9422255B2, “S-imino-S-oxo-iminothiazine compounds as BACE inhibitors, compositions, and their use” (Merck Sharp & Dohme Corp., priority 2013, dated 2016).

One may read the Ki as the equilibrium dissociation constant of an inhibitor or competing ligand from its target.

Each structure is given as a SMILES string.

Assay [1] addresses soluble human BACE1 catalytic domain (Homo sapiens (Human), UniProt P56817). Description: BACE1 HTRF FRET Assay. The assay is classed as biochemical. The note with it: Ki calculated from IC50 using the Cheng-Prusoff equation; QSY7-APPswe-Eu substrate, pH 5.0; read-out: BACE 1 Ki. The source says:
Na^+-Acetate pH 5.0; 1% Brij-35; Glycerol; Dimethyl Sulfoxide (DMSO); Recombinant human soluble BACE1 catalytic domain (>95% pure); APP Swedish mutant peptide substrate (QSY7-APP^swe-Eu): QSY7-EISEVNLDAEFC-Europium-amide.
A homogeneous time-resolved FRET assay can be used to determine IC50 values for inhibitors of the soluble human BACE1 catalytic domain. This assay monitors the increase of 620 nm fluorescence that resulted from BACE1 cleavage of an APPswedish APP^swe mutant peptide FRET substrate (QSY7-EISEVNLDAEFC-Europium-amide). This substrate contains an N-terminal QSY7 moiety that serves as a quencher of the C-terminal Europium fluorophore (620 nm Em). In the absence of enzyme activity, 620 nm fluorescence is low in the assay and increased linearly over 3 hours in the presence of uninhibited BACE1 enzyme Inhibition of BACE1 cleavage of the QSY7-APP^swe-Eu substrate by inhibitors is manifested as a suppression of 620 nm fluorescence.
Varying concentrations of inhibitors at 3× the final desired concentration in a volume of 10 ul are preincubated with purified human BACE1 catalytic domain (3 nM in 10 μl) for 30 minutes at 30° C. in reaction buffer containing 20 mM Na-Acetate pH 5.0, 10% glycerol, 0.1% Brij-35 and 7.5% DSMO. […]

Assay [2] addresses purified human autoBACE-2 (Homo sapiens, UniProt Q9Y5Z0). Description: BACE-2 Assay (BACE-HTRF assay). The assay is classed as biochemical. The note with it: Ki calculated from IC50 using the Cheng-Prusoff equation; QSY7-EISEVNLDAEFC-Eu-amide substrate, pH 5.0. The method, then: Inhibitor IC50s at purified human autoBACE-2 are determined in a time-resolved endpoint proteolysis assay that measures hydrolysis of the QSY7-[…]-Eu-amide FRET peptide substrate (BACE-HTRF assay). […] DMSO is present at 5% final concentration in the assay. Following laser excitation of sample wells at 320 nm, the fluorescence signal at 620 nm is collected for 400 ms following a 50 μs delay on a RUBYstar HTRF plate reader (BMG Labtechnologies). Raw RFU data is normalized to maximum (1.0 nM BACE/DMSO) and minimum (no enzyme/DMSO) RFU values. […] The Ki values are calculated from the IC50 using the Cheng-Prusoff equation.

purified human autoBACE-2, sequence (Q9Y5Z0 63-518 limits assumed): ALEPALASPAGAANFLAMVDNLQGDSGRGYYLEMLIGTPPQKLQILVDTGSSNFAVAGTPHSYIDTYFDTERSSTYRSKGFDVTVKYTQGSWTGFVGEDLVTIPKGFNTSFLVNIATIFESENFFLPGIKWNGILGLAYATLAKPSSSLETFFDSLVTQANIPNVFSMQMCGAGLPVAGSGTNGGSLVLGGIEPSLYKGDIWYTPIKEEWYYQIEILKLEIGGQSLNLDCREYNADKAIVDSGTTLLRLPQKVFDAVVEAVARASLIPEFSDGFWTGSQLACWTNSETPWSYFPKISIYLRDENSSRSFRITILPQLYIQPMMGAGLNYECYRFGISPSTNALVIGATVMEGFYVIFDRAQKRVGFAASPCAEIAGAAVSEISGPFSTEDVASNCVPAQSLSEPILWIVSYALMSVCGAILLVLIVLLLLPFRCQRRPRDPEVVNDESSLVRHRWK
soluble human BACE1 catalytic domain, sequence (P56817 75-416): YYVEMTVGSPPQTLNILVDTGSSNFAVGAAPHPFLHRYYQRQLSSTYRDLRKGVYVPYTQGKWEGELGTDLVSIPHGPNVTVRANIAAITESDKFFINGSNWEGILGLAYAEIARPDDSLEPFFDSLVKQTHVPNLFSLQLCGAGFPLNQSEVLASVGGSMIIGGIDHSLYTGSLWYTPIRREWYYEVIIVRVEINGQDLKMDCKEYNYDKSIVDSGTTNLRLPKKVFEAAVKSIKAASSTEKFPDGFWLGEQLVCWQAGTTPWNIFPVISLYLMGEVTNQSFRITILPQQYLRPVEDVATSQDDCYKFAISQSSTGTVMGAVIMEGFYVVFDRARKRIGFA

On to `CN=S1(=O)C[C@@](C)(c2cc(NC(=O)c3ccc(Cl)cn3)ccc2F)NC(=N)[C@@]1(C)c1ccc(F)cc1` (some centres unmarked) [Example 10a], for which the Ki in assay [1] was 290 nM; in assay [2], 106 nM.
